Experiment [1] relates to rpL34 promoter. As to the kind of experiment: Response of rpL34 promoter constructs to wounding and plant hormones in leaf discs of transgenic tobacco. In kind it is in vivo, Nicotiana tabacum. To be noted: leaf discs of plants with −1500, m178 or Δ147; 1 μM 2,4-D or 5 μM BA in MS medium, 24 hr; versus wounding alone. As for the experimental part:
Fresh young leaves of independent transgenic tobacco were ground in lysis buffer (50 mM sodium phosphate, pH 7.0. 10 mM EDTA, 0.1% TritonX-100, 0.1% sarkosyl and 10 mM DTT). Tobacco protoplast protein was extracted in the same buffer by sonication on ice twice, 5 seconds each time. […] Approximately 5-10 μg of protein was incubated in the presence of 1 mM 4-methylumbelliferyl β-D-glucuronide in 100 μl of lysis buffer at 37 C. Samples from each reaction were taken at 0, 15, and 30 min intervals and the enzyme reaction was quenched in 0.2 M sodium carbonate (Na2CO3). The flurometer was calibrated with 100, 200, 300, and 400 nM 4-methylumbelliferon in 0.2M sodium carbonate.
Kanamycin resistant T1 seedlings, each containing a unique internally deleted rpL34 promoter, were selected and grown to maturity. Six leaf discs excised from the fourth leaf of each plant by paper punch were randomly pooled and incubated in MS medium with 5 μM BA, 1 μM 2,4-D or no plant hormone (wounding treatment) for 24 hr at room temperature. […] The leaf discs ground immediately after excision in protein extraction buffer served as non-wounded tobacco controls.

In experiment [2] the test system is rpL34 promoter. To be noted: previous promoter analyses (Dai et al. 1996); on top of mechanical wounding; cited from earlier work.

On to `O=C(O)COc1ccc(Cl)cc1Cl` [2,4-D, 2,4-dichlorophenoxyacetic acid], for which the “induced GUS activity” value in the experiment with rpL34 promoter [1] is “induced higher GUS activity than wounding alone”. Besides, the rpL34 promoter activity result in the experiment with rpL34 promoter [2] is given as “further enhanced”.

On to `c1ccc(CNc2ncnc3nc[nH]c23)cc1` [BA, benzyladenine], for which the “induced GUS activity” value with rpL34 promoter [1] is given as “induced higher GUS activity than wounding alone”. For the same molecule, in the experiment with rpL34 promoter [2], the rpL34 promoter activity result is “further enhanced”.

Source of the values: patent publication US6355864B1, “Versatile rpL34 promoter elements and use thereof” (Battelle Memorial Institute, priority 1999, dated 2002).
